Measurements as given in PMC5011342, “A high throughput drug screening assay to identify compounds that promote oligodendrocyte differentiation using acutely dissociated and purified oligodendrocyte precursor cells” (BMC Research Notes, 2016).
Read-outs that look alike come from different tables or passages of the source.

Experiments:
[1] = system: acutely dissociated and purified rat OPCs; assay: Acute OL differentiation assay (MBP expression/cell, immunofluorescent image quantification); type: cell-based; conditions: sheet "All OLga data"
Summary of the method: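 Oligodendrocyte precursor cells were enriched from P6-P7 Sprague–Dawley rat brains by immunopanning (RAN-2 and GalC depletion, O4 selection), plated at 5000 cells/well in serum-free, mitogen-free differentiation media on PDL/laminin 96-well view plates, centrifuged at 200×g, and pre-incubated 1–2 h before test compounds were added in quadruplicate. On DIV4, cells were fixed, stained for MBP and DAPI, imaged automatically, and MBP expression per cell was quantified.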

expanded OPCs = assay: cells; conditions: for viability at 0.1 µM / viability at 1 µM / viability at 10 µM: Rattus norvegicus, 72 h
Summary of the method: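 Expanded OPCs seeded at 10,000 cells/well in differentiation media, then exposed to NCC library compounds at 10, 1 and 0.1 µM (quadruplicate, 0.1% DMSO) for three days. Viability read as alamarBlue fluorescence (560/590 nm) after 4 h at 37 °C; tunicamycin 5 ng/ml served as toxicity control.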

[2] = Rattus norvegicus, 2 uM test compound, relative to quetiapine, read-out: OL differentiation, 2 uM (% Quet)
[3] = Rattus norvegicus, 10 uM test compound, relative to quetiapine, read-out: OL differentiation, 10 uM (% Quet)
[4] = read-out: 0.1 µM (% DMSO), alamarBlue viability of expanded OPCs, compound at 0.1 µM, sheet All Tox data
[5] = read-out: 1 µM (% DMSO), alamarBlue viability of expanded OPCs, compound at 1 µM, sheet All Tox data
[6] = read-out: 10 µM (% DMSO), alamarBlue viability of expanded OPCs, compound at 10 µM, sheet All Tox data
[7] = Rattus norvegicus, test compound at 2 uM, MBP expression relative to quetiapine, NCC library screen, read-out: 2 uM (% Quet)
[8] = Rattus norvegicus, test compound at 10 uM, MBP expression relative to quetiapine, NCC library screen, read-out: 10 uM (% Quet)
[9] = alamarBlue viability of expanded OPCs, compound at 0.1 µM, relative to DMSO control
[10] = alamarBlue viability of expanded OPCs, compound at 1 µM, relative to DMSO control
[11] = alamarBlue viability of expanded OPCs, compound at 10 µM, relative to DMSO control
[12] = Rattus norvegicus, test compound at 2 uM, NCC library screen, relative to quetiapine, read-out: 2 uM (% Quet)
[13] = Rattus norvegicus, test compound at 10 uM, NCC library screen, relative to quetiapine, read-out: 10 uM (% Quet)
[14] = read-out: 0.1 µM (% DMSO), alamarBlue viability, NCC library compound at 0.1 µM, sheet "All Tox data"
[15] = read-out: 1 µM (% DMSO), alamarBlue viability, NCC library compound at 1 µM, sheet "All Tox data"
[16] = read-out: 10 µM (% DMSO), alamarBlue viability, NCC library compound at 10 µM, sheet "All Tox data"
[17] = Rattus norvegicus, 0.4 uM test compound, relative to quetiapine, read-out: OL differentiation, 0.4 uM (% Quet)

Work on `C[C@H]1O[C@H](O[C@H]2[C@H](O)[C@@H](O)[C@@H](O[C@H]3[C@H](O)[C@@H](O)C(O)O[C@@H]3CO)O[C@@H]2CO)[C@H](O)[C@@H](O)[C@@H]1N[C@H]1C=C(CO)[C@@H](O)[C@H](O)[C@H]1O` (stereo partly drawn) [Acarbose] yielded an activation at 2 µM [1, 2] of 17.5%, an activation at 10 µM [1, 3] of -6.6% and a viability at 0.1 µM (expanded OPCs; [4]) of 88.8%. It also gave a viability at 1 µM (expanded OPCs; [5]) of 92% and a viability at 10 µM (expanded OPCs; [6]) of 93.2%.

With `CCCC(=O)Nc1ccc(OCC(O)CNC(C)C)c(C(C)=O)c1` (stereo not drawn) [Acebutolol] the activation at 2 µM [1, 7] was 7.8%, the activation at 10 µM [1, 8] was -5.4% and the “0.1 µM (% DMSO)” value (expanded OPCs; [9]) was 94.3 % DMSO. The “1 µM (% DMSO)” value (expanded OPCs; [10]) was 111.2 % DMSO and the “10 µM (% DMSO)” value (expanded OPCs; [11]) was 112.7 % DMSO.

With `CN(C)c1ccc(O)c2c1C[C@H]1C[C@H]3[C@H](N(C)C)C(O)=C(C(N)=O)C(=O)[C@@]3(O)C(O)=C1C2=O` [Minocycline] the activation at 2 µM [1, 12] was 10.9%, the activation at 10 µM [1, 13] was -13.3% and the “0.1 µM (% DMSO)” value (expanded OPCs; [9]) was 90.1 % DMSO. For the same compound, the “1 µM (% DMSO)” value (expanded OPCs; [10]) was 90.9 % DMSO and the “10 µM (% DMSO)” value (expanded OPCs; [11]) was 83.5 % DMSO.

Compound `CCCc1c(OCCCCc2nnn[nH]2)ccc(C(C)=O)c1O` [LY 171883] has an activation at 2 µM [1, 2] of -33.3%, an activation at 10 µM [1, 3] of -5.4% and a viability at 0.1 µM (expanded OPCs; [4]) of 79.7%. It also gave a viability at 1 µM (expanded OPCs; [5]) of 81.3% and a viability at 10 µM (expanded OPCs; [6]) of 86.1%.

`CCOC(=O)C1=C(C)NC(C)=C(C(=O)OC)C1c1cccc(Cl)c1Cl` (stereo not drawn) [Felodipine] was tested, and the activation at 0.08 µM ([1]; Rattus norvegicus, test compound at 0.08 uM, MBP expression relative to quetiapine, NCC library screen, read-out: 0.08 uM (% Quet)) was -8.1%, the activation at 0.4 µM ([1]; Rattus norvegicus, test compound at 0.4 uM, MBP expression relative to quetiapine, NCC library screen, read-out: 0.4 uM (% Quet)) was 0.8% and the “0.1 µM (% DMSO)” value (expanded OPCs; [9]) was 85.5 % DMSO. For the same compound, the “1 µM (% DMSO)” value (expanded OPCs; [10]) was 62.8 % DMSO and the “10 µM (% DMSO)” value (expanded OPCs; [11]) was 18.3 % DMSO.

Work on `C/C=C1\[C@H]2C=C(C)C[C@]1(N)c1ccc(=O)[nH]c1C2` [Huperzine A] yielded an activation at 2 µM [1, 12] of -19.5%, an activation at 10 µM [1, 13] of -60.7% and a viability at 0.1 µM (expanded OPCs; [14]) of 94.2%. The viability at 1 µM (expanded OPCs; [15]) was 90% and the viability at 10 µM (expanded OPCs; [16]) was 93.8%.

For `NCc1ccc(S(N)(=O)=O)cc1` [Mafenide], the activation at 2 µM [1, 7] was 28.6%, the activation at 10 µM [1, 8] was 10% and the “0.1 µM (% DMSO)” value (expanded OPCs; [9]) was 97.9 % DMSO. The “1 µM (% DMSO)” value (expanded OPCs; [10]) was 90.1 % DMSO and the “10 µM (% DMSO)” value (expanded OPCs; [11]) was 86.7 % DMSO.

For `COc1ccc(CN2CCN(C(c3ccc(F)cc3)c3ccc(F)cc3)CC2)c(OC)c1OC` [Lomerizine], the activation at 0.4 µM [1, 17] was 0.09%, the activation at 2 µM [1, 2] was -3.9% and the viability at 0.1 µM (expanded OPCs; [14]) was 92.5%. For the same compound, the viability at 1 µM (expanded OPCs; [15]) was 58.5% and the viability at 10 µM (expanded OPCs; [16]) was 11%.

`CCN(C(C)=O)c1cccc(-c2ccnc3c(C#N)cnn23)c1` [Zaleplon] was tested, and the activation at 2 µM [1, 12] was 12.3%, the activation at 10 µM [1, 13] was -15.8% and the viability at 0.1 µM (expanded OPCs; [14]) was 87.8%. For the same compound, the viability at 1 µM (expanded OPCs; [15]) was 86.8% and the viability at 10 µM (expanded OPCs; [16]) was 86.1%.

Work on `CCN(CC)C(=O)C1(c2ccccc2)CC1CN` (stereo not drawn) [Milnacipran] yielded an activation at 2 µM [1, 2] of -17.2%, an activation at 10 µM [1, 3] of -8.5% and a viability at 0.1 µM (expanded OPCs; [14]) of 88.4%. The viability at 1 µM (expanded OPCs; [15]) was 85.1% and the viability at 10 µM (expanded OPCs; [16]) was 71.2%.

With `CN1CCc2cc(Cl)c(O)cc2[C@@H](c2ccccc2)C1` [R(+) SCH 23390] the “0.4 uM (% Quet)” value ([1]; test compound at 0.4 uM, NCC library screen, relative to quetiapine) was -16.1 % Quet, the “2 uM (% Quet)” value ([1]; test compound at 2 uM, NCC library screen, relative to quetiapine) was -24.3 % Quet and the “0.1 µM (% DMSO)” value (expanded OPCs; alamarBlue viability, NCC library compound at 0.1 µM, sheet "All Tox data") was 84.2 % DMSO. The “1 µM (% DMSO)” value (expanded OPCs; alamarBlue viability, NCC library compound at 1 µM, sheet "All Tox data") was 78.8 % DMSO and the “10 µM (% DMSO)” value (expanded OPCs; alamarBlue viability, NCC library compound at 10 µM, sheet "All Tox data") was 64.1 % DMSO.

`CCCC(CCC)C(=O)O` [Valproic Acid] was tested, and the activation at 2 µM [1, 12] was -5.2%, the activation at 10 µM [1, 13] was -29.7% and the viability at 0.1 µM (expanded OPCs; [14]) was 97.5%. The viability at 1 µM (expanded OPCs; [15]) was 93.1% and the viability at 10 µM (expanded OPCs; [16]) was 104%.

`CC(C)(C)NC[C@H](O)COc1nsnc1N1CCOCC1` [Timolol] showed an activation at 2 µM [1, 12] of -5.6%, an activation at 10 µM [1, 13] of -24.3% and a viability at 0.1 µM (expanded OPCs; [14]) of 99.5%. The viability at 1 µM (expanded OPCs; [15]) was 89.9% and the viability at 10 µM (expanded OPCs; [16]) was 92.8%.

For `O=c1c(-c2ccccc2)c1-c1ccccc1` [Diphenylcyclopropenone], the activation at 0.4 µM [1, 17] was 8.6%, the viability at 0.1 µM (expanded OPCs; [4]) was 73.9% and the viability at 1 µM (expanded OPCs; [5]) was 65%. The viability at 10 µM (expanded OPCs; [6]) was 11.7%.
